Results reported in patent US11986464B2, “5HT3R antagonist for use in treating aneurysms and cardiovascular risk” (University of Kentucky Research Foundation, priority 2021, dated 2024).

Legend:
[1] = system: AngII-infused XXF and XYM Ldlr−/− mice; details: nicotine 4 mg/kg/day co-infused with AngII 1,000 ng/kg/min
Procedure: (§1) Mice were fed a Western diet beginning one week prior to co-infusion of AngII (1,000 ng/kg/min) and nicotine (4 mg/kg/day^130). Ultrasound as used to quantify internal lumen diameters of AA to calculate the percentage of mice with pathology (50% increase compared to day 0 of infusions; FIG. 12A). […] Aortas were harvested for RNA extraction, and thus DTA maximal diameters could not be quantified at study endpoint.

Htr3a mRNA = details: nicotine co-infused with AngII, compared to AngII
Procedure: as §1
To define potential mechanisms for these effects, and whether they are linked to 5HT3R, Htr3a mRNA abundance was quantified in DTA and AA of XXF and XYM AngII-infused mice.

[2] = system: AngII-infused XY male Ldlr−/− mice (XYM); test: AngII-induced aortic pathology (DTA, AA) and aortic weights; assay type: in vivo; details: for mean weight of the aortas: 7 days then 28 days with AngII 1,000 ng/kg/min, ±SEM
Procedure: Tropisetron (Trop) is an exemplary 5HT3R antagonist used in these studies.^136 Effects of Trop were tested against AngII-induced aortic pathology in XY male Ldlr−/− mice (XYM). […] Mice were fed a Western diet (high fat, high sucrose, high cholesterol) beginning one week prior to the start of treatments. XYM Ldlr−/− mice were administered two different doses of Trop (10 or 20 mg/kg/day) by osmotic minipump for 7 days. The minipumps were then replaced with new pumps containing both AngII (1,000 ng/kg/min) and Trop and treatment was continued for 28 days. Aortas were removed from the iliac bifurcation to the end of the arch and fixed in formalin. Aortas were then cleaned and weighed.

[3] = system: AngII-infused XYM Ldlr−/− mice; test: Ultrasound internal lumen diameters of abdominal aortas; assay type: in vivo; details: for average internal lumen diameter of abdominal aorta on Day 27: ultrasound, ±SEM, in mm (unit assumed)
Procedure: (§2) Male mice (XYM Ldlr−/−) were fed a Western diet (high fat, high sucrose, high cholesterol) beginning one week prior to the start of treatments. XYM Ldlr−/− mice were then administered two different doses of Trop (10 or 20 mg/kg/day) by osmotic minipump for 7 days. The minipumps were then replaced with new pumps containing both AngII (1,000 ng/kg/min) and Trop and treatment was continued for 28 days.
Internal lumen diameters of abdominal aortas from AngII treated mice treated with either dose of tropisetron were smaller than those from the AngII alone group after 27 days of treatment (FIG. 18). The average diameters on Day 27 were: AngII=1.77±0.35; Trop 10=1.32±0.23; Trop 20=1.20±0.28 (±SEM, *P<0.05 compared to AngII). The average diameters in all three groups increased from their baseline values with the AngII group having the largest increase followed by the Trop 20 and then Trop 10 group. […] An increase of 50% or more is considered an aneurysm.

[4] = system: AngII-infused XYM Ldlr−/− mice; test: Incidence and grading of AngII-induced abdominal aortic aneurysms; assay type: in vivo; details: for mice with Abdominal Aneurysm Grade 0: 0 = no aneurysm; for mice with Abdominal Aneurysm Grade 4: 4 being a rupture
Procedure: as §2

[5] = system: AngII-infused XYM Ldlr−/− mice; test: Systolic and diastolic blood pressure induced by AngII; assay type: in vivo; details: for mean systolic blood pressure: ±SEM
Procedure: as §2
Blood pressures were taken on five consecutive days. Measurements from the last three days were used to calculate blood pressures for each group. The mean systolic blood pressures are in mm Hg (±SEM): AngII=149±3.4; Trop 10=146±5.6; Trop 20=128±4.4. The mean diastolic blood pressures were in mm Hg: AngII=86±4.0; Trop 10=83±6.0; Trop 20=70±4.1 (FIG. 21).

[6] = system: AngII-infused XYM Ldlr−/− mice; test: Maximal external diameters of excised abdominal aortas; assay type: in vivo; details: ±SEM
Procedure: as §2, with “28 days. External abdominal aortic diameters were quantified on excised, cleaned tissue mounted on a black wax background. A Nikon SMZ800 dissecting microscope was used to obtain aorta images and the maximal external diameter of the abdominal aorta was measured using Nikon NIS-Elements Version 5.2.” for “28 days.”

[7] = system: AngII-infused XYM Ldlr−/− mice; test: Atherosclerosis quantified en face (aortic arch, thoracic aorta); assay type: in vivo
Procedure: as §2
Atherosclerosis was quantified en face in the aortic arch. Briefly, the entire length of the aorta was removed and the intimal surface exposed, in its entirety, by a longitudinal cut through the inner curvature of the aortic arch and down the anterior aspect of the remaining aorta. A cut is also made through the greater curvature of the aortic arch to the subclavian branch. The tissue is then pinned to a dark surface. Arch areas were defined by drawing a 3-mm line from the left subclavian artery. The intimal area of the aortic arch was defined as the region from the orifice of innominate artery to the orifice of the left subclavian artery. Thoracic areas were defined by drawing a 9 mm line from the end of the arch area to the diaphragm muscle. Atherosclerotic areas were quantified by drawing a line around the borders and summing the total area of each. Lesions were summed and divided by the total arch or thoracic area to calculate the percent lesion area. Measurements were performed using Nikon NIS-Elements Version 5.2.

[8] = system: AngII-infused XYM Ldlr−/− mice; test: Serum cholesterol and triglycerides by enzymatic assay kits; assay type: in vivo; details: in mg/dL (unit assumed)
Procedure: as §2, with “28 days. Concentrations of total serum cholesterol, triglycerides and free fatty acids were quantified (blood collected from cardiac puncture) using enzymatic assay kits.” for “28 days.”

[9] = Trop 10 or 20 mg/kg/day, compared to AngII alone

Structure (SMILES): CN1CCCC1c1cccnc1 (stereo not drawn) [nicotine]
- percentage of mice with pathology within the AA (50% increase in internal lumen diameter compared to day 0) [1]: 50%
- Htr3a mRNA abundance in AA (Htr3a mRNA; XXF and XYM mice): significant increase
- Htr3a mRNA abundance in DTA (Htr3a mRNA): no effect

Structure (SMILES): CN1[C@@H]2CC[C@H]1C[C@@H](OC(=O)c1c[nH]c3ccccc13)C2 [Trop]
- mean weight of the aortas ([2]; Trop 10 mg/kg/day by osmotic minipump): 0.035 g
- mean weight of the aortas ([2]; Trop 20 mg/kg/day by osmotic minipump): 0.023 g
- percentage of AngII-induced pathology of AA [2, 9]: dose-dependent reduction
- percentage of AngII-induced pathology of DTA [2, 9]: dose-dependent reduction
- average internal lumen diameter of abdominal aorta on Day 27 ([3]; Trop 10 mg/kg/day): 1.32±0.23
- percent increase in abdominal aorta diameters on Day 27 compared to Day 0 ([3]; Trop 20 mg/kg/day, compared to AngII, P<0.05): significantly different
- average internal lumen diameter of abdominal aorta on Day 27 ([3]; Trop 20 mg/kg/day): 1.20±0.28
- % Incidence of abdominal aneurysms ([4]; Trop 10 mg/kg/day): 30%
- mice with Abdominal Aneurysm Grade 1 ([4]; Trop 10 mg/kg/day): 3
- mice with Abdominal Aneurysm Grade 2 ([4]; Trop 10 mg/kg/day): 0
- mice with Abdominal Aneurysm Grade 3 ([4]; Trop 10 mg/kg/day): 0
- mice with Abdominal Aneurysm Grade 0 ([4]; Trop 10 mg/kg/day): 7
- mice with Abdominal Aneurysm Grade 4 ([4]; Trop 10 mg/kg/day): 0
- % Incidence of abdominal aneurysms ([4]; Trop 20 mg/kg/day): 20%
- mice with Abdominal Aneurysm Grade 1 ([4]; Trop 20 mg/kg/day): 0
- mice with Abdominal Aneurysm Grade 2 ([4]; Trop 20 mg/kg/day): 1
- mice with Abdominal Aneurysm Grade 3 ([4]; Trop 20 mg/kg/day): 0
- mice with Abdominal Aneurysm Grade 0 ([4]; Trop 20 mg/kg/day): 8
- mice with Abdominal Aneurysm Grade 4 ([4]; Trop 20 mg/kg/day): 1
- mean diastolic blood pressure ([5]; Trop 10 mg/kg/day): 83±6.0 mm Hg
- mean systolic blood pressure ([5]; Trop 10 mg/kg/day): 146±5.6 mm Hg
- mean diastolic blood pressure ([5]; Trop 20 mg/kg/day): 70±4.1 mm Hg
- mean systolic blood pressure ([5]; Trop 20 mg/kg/day): 128±4.4 mm Hg
- mean external diameter of abdominal aorta ([6]; Trop 10 mg/kg/day): 1.08±0.13 mm
- mean external diameter of abdominal aorta ([6]; Trop 20 mg/kg/day): 0.87±0.11 mm
- atherosclerosis (percent lesion area) in the thoracic aortas ([7]; tropisetron 10 mg/kg/day): 14.14±6.4%
- percent lesion surface area of the aortic arch ([7]; tropisetron 10 mg/kg/day): 14.92±5.3%
- atherosclerosis (percent lesion area) in the thoracic aortas ([7]; tropisetron 20 mg/kg/day): 7.43±7.95%
- percent lesion surface area of the aortic arch ([7]; tropisetron 20 mg/kg/day): 4.24±3.5%
- serum cholesterol level ([8]; Trop 10 mg/kg/day): 1683±109.5
- serum triglyceride level ([8]; Trop 10 mg/kg/day): 652±73.6
- serum cholesterol level ([8]; Trop 20 mg/kg/day): 1437±46.7
- serum triglyceride level ([8]; Trop 20 mg/kg/day): 549±54.4
